Read-outs that look alike come from different tables or passages of the source.
Columns and labels:
human JAK2 = biological target: T1, human JAK2 (Homo sapiens, UniProt O60674); experiment: JAK2 inhibition assay (polyGT substrate / Ulight-JAK1 peptide); format: biochemical; conditions: recombinant human JAK2 catalytic domain; polyGT or Ulight-JAK1 peptide assay
T1 construct: catalytic domain (amino acids 808-1132; catalog number PV4210); GST; purchased Invitrogen PV4210
How it was run: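 Radiometric: 0.025 mU JAK2 with 2.5 μg polyGT, 1 μM ATP plus ^33P-ATP in MOPS pH 7.5 buffer, 1% DMSO, 90 min at 30° C.; filter counting. Alternative TR-FRET format with Ulight-JAK1 peptide, 60 min at room temperature, Eu-anti-phosphotyrosine detection.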

human TYK2 = biological target: T2, human TYK2 (Homo sapiens, UniProt P29597); experiment: TYK2 inhibition assay; format: biochemical; conditions: recombinant human TYK2 catalytic domain, polyGT substrate
T2 construct: catalytic domain (amino acids 871-1187; catalog number 08-147); purchased Carna Biosciences 08-147
T2 sequence (P29597 871-1187): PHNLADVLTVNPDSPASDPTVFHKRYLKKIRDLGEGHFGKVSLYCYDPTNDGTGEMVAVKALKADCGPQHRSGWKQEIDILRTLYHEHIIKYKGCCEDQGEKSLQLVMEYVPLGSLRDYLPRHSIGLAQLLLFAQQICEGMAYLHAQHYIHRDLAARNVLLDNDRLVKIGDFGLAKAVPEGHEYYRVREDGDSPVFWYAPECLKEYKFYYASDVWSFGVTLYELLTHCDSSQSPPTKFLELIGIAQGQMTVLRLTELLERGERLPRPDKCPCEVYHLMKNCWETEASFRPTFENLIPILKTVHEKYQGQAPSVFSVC
How it was run: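 Radiometric kinase reaction run 90 min at 30 °C, stopped with phosphoric acid, washed and scintillation-counted.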

CTLL-2 cell line = experiment: CTLL2 viability assay; format: cell-based; conditions: Mus musculus, IL-2 dependent CTLL2 viability, 24 h, ATP-lite
Text: The protocol describes the methods to analyse the activity of compounds on their ability to sustain the IL2-dependent viability of CTLL2.
Final DMSO concentration was 0.1%.

human JAK1 = biological target: T3, human JAK1 (Homo sapiens, UniProt P23458); experiment: JAK1 inhibition assay (polyGT substrate / Ulight-JAK1 peptide); format: biochemical; conditions: recombinant human JAK1 catalytic domain; polyGT or Ulight-JAK1 peptide assay
T3 construct: catalytic domain, amino acids 866-1154; catalog number PV4774; purchased Invitrogen PV4774
How it was run: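 Two formats. PolyGT radiometric: 45 min at 30 °C, stopped with phosphoric acid, counted as cpm. Ulight-JAK1 peptide: 60 min at room temperature, stopped with Eu-anti-phosphotyrosine/EDTA, read as RFU. Percent inhibition normalised to vehicle and 10 μM staurosporine.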

human JAK3 = biological target: T4, human JAK3 (Homo sapiens, UniProt P52333); experiment: JAK3 inhibition assay; format: biochemical; conditions: recombinant human JAK3 catalytic domain; polyGT substrate
T4 construct: catalytic domain (amino acids 781-1124; catalog number PV3855); purchased Invitrogen PV3855
How it was run: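 Radiometric kinase assay: 0.5 ng JAK3 with 2.5 μg polyGT in Tris pH 7.5/MgCl2 buffer, 1 μM ATP plus 0.25 μCi 33P-γ-ATP, 1% DMSO, 45 min at 30 °C, stopped with phosphoric acid.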

BA/F3 cell line = experiment: BA/F3 viability assay; conditions: Mus musculus, BaF3, 48 h, read-out: BA/F3 IC50
[1] = tested on: pSTAT1(2)-luciferase reporter in HeLa cells triggered with human OSM; experiment: JAK-STAT signalling assay; format: cell-based; conditions: HeLa cells, pSTAT1(2)-luciferase reporter, human OSM 33 ng/mL, read-out: JAK-STAT IC50
How it was run: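 HeLa cells transiently co-transfected with pSTAT1(2)-luciferase and LacZ control reporter, preincubated with compound 60 min, then stimulated with human OSM (33 ng/mL final) overnight at 37 °C. Luciferase read by luminescence; percent inhibition from vehicle and no-trigger controls, EC50 from dose-response.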

T4 sequence (P52333 781-1124): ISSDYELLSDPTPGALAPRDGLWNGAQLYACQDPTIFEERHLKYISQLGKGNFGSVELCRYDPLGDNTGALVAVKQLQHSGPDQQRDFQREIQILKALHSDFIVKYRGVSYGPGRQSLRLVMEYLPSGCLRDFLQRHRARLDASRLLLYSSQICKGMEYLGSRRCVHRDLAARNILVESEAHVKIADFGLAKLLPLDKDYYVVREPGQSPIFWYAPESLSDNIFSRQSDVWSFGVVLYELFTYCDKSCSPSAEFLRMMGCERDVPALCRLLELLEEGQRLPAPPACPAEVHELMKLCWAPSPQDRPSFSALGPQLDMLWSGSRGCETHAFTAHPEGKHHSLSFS
T3 sequence (P23458 866-1154): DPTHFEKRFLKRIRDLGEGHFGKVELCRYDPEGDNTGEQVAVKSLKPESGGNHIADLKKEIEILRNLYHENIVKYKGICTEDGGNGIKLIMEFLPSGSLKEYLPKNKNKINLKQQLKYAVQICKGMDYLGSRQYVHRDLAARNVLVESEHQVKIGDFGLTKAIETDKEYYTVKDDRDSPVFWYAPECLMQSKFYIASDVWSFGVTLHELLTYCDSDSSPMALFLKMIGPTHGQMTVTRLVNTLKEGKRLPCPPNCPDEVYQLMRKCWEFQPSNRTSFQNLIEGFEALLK
T1 sequence (O60674 808-1132): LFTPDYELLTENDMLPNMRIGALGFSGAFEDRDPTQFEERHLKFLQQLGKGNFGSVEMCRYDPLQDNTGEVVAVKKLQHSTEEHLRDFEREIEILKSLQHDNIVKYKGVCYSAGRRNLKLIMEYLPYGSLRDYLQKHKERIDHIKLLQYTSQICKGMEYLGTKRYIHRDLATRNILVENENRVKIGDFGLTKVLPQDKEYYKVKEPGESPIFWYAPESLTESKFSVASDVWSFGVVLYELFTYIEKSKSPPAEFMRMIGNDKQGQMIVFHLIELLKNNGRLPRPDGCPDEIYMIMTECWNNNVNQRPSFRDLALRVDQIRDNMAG

Structure (SMILES) | IC50 (human JAK2) [nM] | IC50 (human TYK2) [nM] | IC50 (CTLL-2 cell line) [nM] | IC50 (human JAK1) [nM] | IC50 (human JAK3) [nM] | IC50 (BA/F3 cell line) [nM] | IC50 [1] [nM] | IC50 ([1]; Homo sapiens, HeLa) [nM]
CCc1cc(CNS(=O)(=O)N(C)C)ccc1N(C)c1cc2c(cn1)ncn2C [Compound 375, Dimethyl amino-N-{3-Ethyl-4-[methyl-(1-methyl-1H-imidazo[4,5-c]pyridin-6-yl)-amino]-benzyl}-sulfonamide] | 0.01 to 100 | 101 to 500 | > 1000 | 0.01 to 100 | 101 to 500 | 1000 to 5000 | – | –
CCc1cc(C2CN(C(=O)C(F)F)C2)ccc1N(C)c1cc2c(cn1)ncn2C [Compound 346, 1-(3-{3-Ethyl-4-[methyl-(1-methyl-1H-imidazo[4,5-c]pyridin-6-yl)-amino]-phenyl)-azetidin-1-yl)-2,2-difluoro-ethanone] | 0.01 to 100 | 0.01 to 100 | > 1000 | 0.01 to 100 | 101 to 500 | > 5000 | – | –
CCc1cc(C2CN(S(=O)(=O)CCOC)C2)ccc1N(C)c1cc2c(cn1)ncn2C [Compound 349, {2-Ethyl-4-[1-(2-methoxy-ethanesulfonyl)-azetidin-3-yl]-phenyl}-methyl-(1-methyl-1H-imidazo[4,5-c]pyridin-6-yl)-amine] | 0.01 to 100 | 0.01 to 100 | > 1000 | 0.01 to 100 | 101 to 500 | 1000 to 5000 | – | –
CCc1cc(C2(CC#N)COC2)ccc1N(C)c1cc2c(cn1)ncn2C [Compound 389, (3-{3-Ethyl-4-[methyl-(1-methyl-1H-imidazo[4,5-c]pyridin-6-yl)-amino]-phenyl}-oxetan-3-yl)-acetonitrile] | 0.01 to 100 | 0.01 to 100 | > 1000 | 0.01 to 100 | 0.01 to 100 | > 5000 | – | –
CCc1cc(C(C#N)N2CCN(C(C)=O)CC2)ccc1N(C)c1cc2c(cn1)ncn2C (stereo not shown) [Compound 396, (4-Acetyl-piperazin-1-yl)-{3-ethyl-4-[methyl-(1-methyl-1H-imidazo[4,5-c]pyridin-6-yl)-amino]phenyl}-acetonitrile] | 0.01 to 100 | 0.01 to 100 | > 1000 | 0.01 to 100 | 0.01 to 100 | > 5000 | – | –
CN(c1cc2c(cn1)ncn2C)c1c(F)cc(CC#N)cc1F [Compound 405, {3,5-Difluoro-4-[methyl-(1-methyl-1H-imidazo[4,5-c]pyridin-6-yl)-amino]-phenyl}-acetonitrile] | 0.01 to 100 | 0.01 to 100 | > 1000 | 0.01 to 100 | 501 to 1000 | 1000 to 5000 | – | –
CCc1cc(C2(CCNS(=O)(=O)C(F)F)COC2)ccc1N(C)c1cc2c(cn1)ncn2C [Compound 397, N-[2-(3-{3-Ethyl-4-[methyl-(1-methyl-1H-imidazo[4,5-c]pyridin-6-yl)-amino]-phenyl}-oxetan-3-yl)-ethyl]-C,C-difluoro-methanesulfonamide] | 0.01 to 100 | 0.01 to 100 | > 1000 | 0.01 to 100 | 0.01 to 100 | 1000 to 5000 | – | –
CCc1cc(C2CCN(C(=O)C(F)F)CC2)ccc1N(C)c1cc2c(cn1)ncn2C [Compound 225, 1-(4-(3-ethyl-4-(methyl(1-methyl-1H-imidazo[4,5-c]pyridin-6-yl)amino)phenyl)piperidin-1-yl)-2,2-difluoroethanone] | – | 0.01 to 100 | – | 0.01 to 100 | 0.01 to 100 | 1000 to 5000 | 501 to 1000 | –
CCc1cc(C2=CCN(C(=O)C(C)O)CC2)ccc1N(C)c1cc2c(cn1)ncn2C (stereo not shown) [Compound 201, 1-(4-(3-ethyl-4-(methyl(1-methyl-1H-imidazo[4,5-c]pyridin-6-yl)amino)phenyl)-5,6-dihydropyridin-1(2H)-yl)-2-hydroxypropan-1-one] | – | 0.01 to 100 | 501 to 1000 | 0.01 to 100 | 101 to 500 | – | – | 1 to 500
CCc1cc(CNC(=O)C2CCC(F)(F)CC2)ccc1N(C)c1cc2c(cn1)ncn2C [Compound 377, 4,4-Difluoro-cyclohexanecarboxylic acid 3-ethyl-4-[methyl-(1-methyl-1H-imidazo[4,5-c]pyridin-6-yl)-amino]-benzylamide] | > 1000 | > 1000 | > 1000 | 0.01 to 100 | > 1000 | > 5000 | – | –
CCc1cc(-c2cncc(F)c2)ccc1N(C)c1cc2c(cn1)ncn2C [Compound 133, N-(2-ethyl-4-(5-fluoropyridin-3-yl)phenyl)-N,1-dimethyl-1H-imidazo[4,5-c]pyridin-6-amine] | – | 101 to 500 | – | 0.01 to 100 | 501 to 1000 | > 5000 | – | 1 to 500
CCc1cc(C(N)=O)ccc1N(C)c1cc2c(cn1)ncn2C [Compound 137, 3-Ethyl-4-(methyl(1-methyl-1H-imidazo[4,5-c]pyridin-6-yl)amino)benzamide] | – | – | > 1000 | – | – | – | – | 501 to 1000
CCc1cc(CN(C)S(C)(=O)=O)ccc1N(C)c1cc2c(cn1)ncn2C [Compound 261, N-(3-ethyl-4-(methyl(1-methyl-1H-imidazo[4,5-c]pyridin-6-yl)amino)benzyl)-N-methylmethanesulfonamide] | – | 0.01 to 100 | 501 to 1000 | 0.01 to 100 | 0.01 to 100 | 1000 to 5000 | – | –
CN(c1cc2c(cn1)ncn2C)c1ccc(CNS(C)(=O)=O)cc1F [Compound 269, N-(3-Fluoro-4-(methyl(1-methyl-1H-imidazo[4,5-c]pyridin-6-yl)amino)benzyl)methanesulfonamide] | – | 0.01 to 100 | – | 0.01 to 100 | 101 to 500 | > 5000 | – | 501 to 1000
CC(C)S(=O)(=O)N1CC(c2ccc(N(C)c3cc4c(cn3)ncn4C)c(OC(F)F)c2)C1 [Compound 373, {2-Difluoromethoxy-4-[1-(propane-2-sulfonyl)-azetidin-3-yl]-phenyl}-methyl-(1-methyl-1H-imidazo[4,5-c]pyridin-6-yl)-amine] | 101 to 500 | > 1000 | > 1000 | 0.01 to 100 | 501 to 1000 | – | – | –
CCc1cc(N2CC[C@@H](F)C2)ncc1N(C)c1cc2c(cn1)ncn2C [Compound 414, [4-Ethyl-6-((R)-3-fluoro-pyrrolidin-1-yl)-pyridin-3-yl]-methyl-(1-methyl-1H-imidazo[4,5-c]pyridin-6-yl)-amine] | 0.01 to 100 | 0.01 to 100 | > 1000 | 0.01 to 100 | 101 to 500 | – | – | –
CCc1cc(CN2CC(F)(F)C2)ccc1N(C)c1cc2c(cn1)ncn2C [Compound 378, [4-(3,3-Difluoro-azetidin-1-ylmethyl)-2-ethyl-phenyl]-methyl-(1-methyl-1H-imidazo[4,5-c]pyridin-6-yl)-amine] | – | – | > 1000 | – | – | > 5000 | – | –
CCc1cc(CNS(N)(=O)=O)ccc1N(C)c1cc2c(cn1)ncn2C [Compound 423, N-{3-Ethyl-4-[methyl-(1-methyl-1H-imidazo[4,5-c]pyridin-6-yl)-amino]-benzyl}-aminosulfonamide] | 0.01 to 100 | 0.01 to 100 | > 1000 | 0.01 to 100 | 0.01 to 100 | – | – | –
CCc1cc(C(C#N)N2CC(C)(C)C2)ccc1N(C)c1cc2c(cn1)ncn2C (stereo not shown) [Compound 446, (3,3-Dimethyl-azetidin-1-yl)-{3-ethyl-4-[methyl-(1-methyl-1H-imidazo[4,5-c]pyridin-6-yl)-amino]-phenyl}-acetonitrile] | 0.01 to 100 | 0.01 to 100 | > 1000 | 0.01 to 100 | 501 to 1000 | – | – | –

From patent US20130217664A1, “NOVEL COMPOUNDS USEFUL FOR THE TREATMENT OF DEGENERATIVE AND INFLAMMATORY DISEASES” (priority 2012, published 2013)
